Source: patent US5989846A, “Assays to identify inducers of plant defense resistance” (Rutgers, The State University of New Jersey, priority 1995, dated 1999)

Legend:
bovine catalase = target: T1, bovine catalase (Bos taurus, UniProt P00432); details: Kirkman and Gaetani 1984; cited from earlier work
T1 sequence (P00432 2-527 limits assumed): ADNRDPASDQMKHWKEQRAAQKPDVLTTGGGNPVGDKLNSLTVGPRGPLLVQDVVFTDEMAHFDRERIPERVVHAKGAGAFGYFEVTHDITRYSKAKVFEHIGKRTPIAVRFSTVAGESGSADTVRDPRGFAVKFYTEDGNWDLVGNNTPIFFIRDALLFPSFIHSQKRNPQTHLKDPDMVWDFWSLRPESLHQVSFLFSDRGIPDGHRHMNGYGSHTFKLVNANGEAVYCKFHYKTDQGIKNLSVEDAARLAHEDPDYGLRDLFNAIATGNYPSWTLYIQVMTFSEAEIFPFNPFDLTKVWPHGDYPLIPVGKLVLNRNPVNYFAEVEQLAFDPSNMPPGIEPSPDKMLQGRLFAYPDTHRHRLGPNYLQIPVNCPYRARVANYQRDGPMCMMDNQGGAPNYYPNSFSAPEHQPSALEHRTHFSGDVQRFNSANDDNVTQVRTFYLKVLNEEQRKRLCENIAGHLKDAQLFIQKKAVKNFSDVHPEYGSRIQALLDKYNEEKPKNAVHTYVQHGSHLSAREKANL

[1] = tested on: resistance or PR gene expression; set-up: key: ++: indicates a high level of biological activity; +: indicates a lower level of biological activity; ±: indicates low, but detectable biological activity in some assays; -: indicates no biological activity; details: Table 3; values reported in literature; cited from earlier work
H2 O2 = assay: Abundance of H2O2 in treated tobacco leaves; type: in vivo; details: FIG. 11
Source text: The abundance of H2 O2 increased in SA- or 3AT-treated tobacco leaves by 50-60% over the control levels observed in water-treated leaves. […] Thus, elevated levels of H2 O2, and in turn, enhanced oxidative stress in vivo, were consistent with inhibition of catalase activity by SA observed in vitro.

SABP = tested on: SABP; set-up: concentration or dose not given beside the values; details: Table 6; previously published data (Chen et al. 1993); cited from earlier work
ascorbate peroxidase = assay: Ascorbate peroxidase activity in tobacco leaf extracts; type: biochemical, Nicotiana tabacum cv. Xanthi nc; details: 200 μM compound, corrected for quenching of auto oxidation
In short: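 Soluble extracts from leaves of 6–8-week Nicotiana tabacum cv. Xanthi nc, desalted into 50 mM potassium phosphate pH 7 with 100 μM ascorbate, were assayed (30–50 μg protein) with or without 100 or 1000 μM SA or INA. Ascorbate oxidation followed as A290 decrease; means of three replicates.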

[2] = target: T2, catalase activity of SABP (Nicotiana tabacum, UniProt P49319); assay: Catalase activity of highly purified SABP (luminol method); type: biochemical, tobacco; details: 0.05 h; 1 mM SA or analogue, 1 mM H2O2, 500 ng highly purified SABP
T2 sequence (P49319 1-492): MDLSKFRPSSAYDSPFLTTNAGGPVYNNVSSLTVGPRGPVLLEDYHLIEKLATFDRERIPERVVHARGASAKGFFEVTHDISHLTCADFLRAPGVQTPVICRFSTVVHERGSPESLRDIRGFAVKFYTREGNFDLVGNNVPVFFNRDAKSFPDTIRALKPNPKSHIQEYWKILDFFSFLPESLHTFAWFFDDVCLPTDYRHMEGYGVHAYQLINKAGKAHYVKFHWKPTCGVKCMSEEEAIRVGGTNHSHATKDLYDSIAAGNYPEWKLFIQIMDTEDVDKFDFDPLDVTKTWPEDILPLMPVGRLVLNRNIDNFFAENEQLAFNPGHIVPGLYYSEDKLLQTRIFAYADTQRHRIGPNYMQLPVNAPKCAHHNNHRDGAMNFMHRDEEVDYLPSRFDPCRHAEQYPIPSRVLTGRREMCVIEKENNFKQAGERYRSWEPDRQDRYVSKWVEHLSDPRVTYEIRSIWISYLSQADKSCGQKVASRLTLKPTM
Method: Aliquots (50 μl) were removed from the assay mixture at 30 second intervals to assay for amount of H2 O2 remaining using the luminol method as has been described by Warm and Laties, Phytochem. […] The tube was placed in the measuring chamber and assay was initiated with automatic injection into the mixture of 100 μl of 0.5 mM K3 Fe(CN)6 in 0.2N NH4 OH, pH 9.5. Measurements were integrated over 5 second periods. H2 O2 was calculated from the standard curve constructed with known amounts of H2 O2. Rate constants of SABP catalase activity in the presence or absence of SA or its analogues were then calculated based on a first-order mechanism.

[3] = tested on: salicylic acid binding protein; assay: Competitive [14C] salicylic acid binding assay (spin-column); set-up: species or system tobacco; details: [14C] salicylic acid 20 μM
Method: The 180 kDa native binding protein isolated was tested for binding affinity and specificity. A competitive assay was established using salicylic acid binding protein fractionated from plants as previously described.
A key element during the characterization and the purification process is a simple, inexpensive, sensitive and reliable method for determining the salicylic acid binding activity. For this purpose, spin-column exclusion chromatography was used to separate the bound [^14 C] salicylic acid (excluded) from the bulk free salicylic acid (included). Specifically, a 1.5 ml Eppendorf tube was punctured at the tip with a 20-gauge needle and a small amount of glass wool was added to cover the small hole. The tube was then filled with Bio-Gel P-6DG desalting gel (exclusion limit 6 KDa; purchased from Bio-Rad, Melville, N.Y.) which have been swollen in water. An alternative gel is Sephadex G-25 fine (from Pharmacia, Piscataway, N.J.). Excess liquid in the gel was removed and centrifuged for 5 minutes at full speed in a Dynamic centrifuge (Becton Dickinson). The process was then repeated several times until the gel filled the tube. After incubation of an aliquot of the extract or column fractions for 2 hr at 4° C. with 5 μM-20 μM [^14 C salicylic acid] (specifically radioactivity 55 Ci/mol; purchased from New England Nuclear), 150 μl of proteins binding sample was loaded onto the tube column, which was then rapidly centrifuged for 2 minutes at full speed and the solution of proteins and bound [^14 C-salicylic acid] that was excluded from the gel was collected into another tube that had been placed under the tube column during the centrifugation. One hundred microliters of this solution was then used to determine the amount of bound salicylic acid. […] For example, to determine the inhibitory effect of various salicylic acid analogues on salicylic acid binding activity, these individual analogues were included in the binding mixture containing both the protein and [^14 C] salicylic acid during the 2 hr incubation, and resulting binding activity was determined in comparison to the activity in the absence of these analogues. Likewise, to determine the effect of pH and antioxidants on the binding activity the protein sample was either dialyzed against a large volume of buffers with different pH or antioxidants were added to the protein sample to various concentrations and the resulting binding activities were then determined with the spin-column method in comparison with the activity determined in the absence of these treatments.

NC(=O)C1=CN([C@@H]2O[C@H](COP(=O)(O)OP(=O)(O)OC[C@H]3O[C@@H](n4cnc5c(N)ncnc54)[C@H](O)[C@@H]3O)[C@@H](O)[C@H]2O)C=CC1 [NADH, nicotinamide adenine dinucleotide]
Binding to bovine catalase (bovine catalase): tightly binds

O=C(O)c1cccc(O)c1 [3-Hydroxybenzoic acid]
Biological activity [1]: -
Increase in abundance of H2O2 over water-treated leaves (H2 O2): unable to enhance
Inhibition (%) [14C]SA binding (SABP): 1%
% Inhibition of ascorbate peroxidase (ascorbate peroxidase): 28 ± 7%
inhibition at 1000 µM [2]: 3.1%
Inhibition (%) 2× ([3]; 40 μM (2×) unlabeled competitor): -2%
Inhibition (%) 10× ([3]; 200 μM (10×) unlabeled competitor): 0%

NC(=O)C1=CN([C@@H]2O[C@H](COP(=O)(O)OP(=O)(O)OC[C@H]3O[C@@H](n4cnc5c(N)ncnc54)[C@H](OP(=O)(O)O)[C@@H]3O)[C@@H](O)[C@H]2O)C=CC1 [NADPH, nicotinamide adenine dinucleotide phosphate]
Binding to bovine catalase (bovine catalase): tightly binds
